Source: patent US20040048837A1, “Method for treatment of renal disease” (priority 2002, published 2004)

Assays:
[1] = system: patients undergoing chronic hemodialysis; experiment: Historical cohort study of mortality and survival in chronic hemodialysis patients on intravenous paricalcitol or calcitriol; type: in vivo, human; conditions: for Mortality rate (deaths/person-years): 36-month follow-up after initiation of injectable vitamin D; for Number of deaths: 36-month follow-up, paricalcitol 18,430 person-years, calcitriol 22,057 person-years; for Crude survival at one year / Crude survival at three years / Crude survival at two years: Kaplan-Meier; for Mortality risk according to quintiles of base line PTH / Mortality risk according to quintiles of base line serum calcium: model adjusted for all covariates; for HR (mortality): reference calcitriol
Method: An historical cohort study was conducted of patients undergoing chronic hemodialysis in Fresenius Medical Care (FMC) dialysis facilities in the United States. Patients who initiated treatment with either paricalcitol or calcitriol beginning Jan. 1, 1999 or after, and who remained exclusively on that intravenous vitamin D formulation until the conclusion of the follow-up period on Dec. 31, 2001, were included in this study. Patients were excluded if they received any form of intravenous vitamin D prior to Jan. 1, 1999 or if they switched from one injectable vitamin D formulation to another during the study period. Patients treated exclusively with other intravenous vitamin D formulations were not studied because of small sample sizes in those groups.
The FMC data system is an Oracle database populated by the individual clinical data systems employed in each individual FMC dialysis facility. The database contains demographic, laboratory, hospitalization, and mortality information as well as detailed records of the treatments administered during each hemodialysis run since January 1995. All data were collected prospectively as part of routine patient care in over 1000 dialysis facilities throughout the United States. For this study, no additional data were retrospectively abstracted from medical records.
Upon a patient's admission to an FMC facility, demographic information including age, gender, race, date of first dialysis, cause of end stage renal disease, and diabetes status were entered into the system. Subsequently, hemodialysis prescription, laboratory tests, and injectable medications were recorded daily. Centralized labs utilized by all FMC facilities performed laboratory tests using standardized assays. Laboratory test results were automatically downloaded from the centralized laboratory to the FMC data system, minimizing the possibility of data entry errors.
Records of all medicines administered during hemodialysis included date of administration, medication name, dose, and route of administration. This information was collected and uploaded into a central database on a daily basis, and underwent routine quality assessment and control measures because of their link with billing systems. This permitted restriction of the analysis to those who initiated and remained on a single vitamin D formulation during the study period. Whenever a patient missed a hemodialysis treatment, a temporary absence or permanent discharge must be recorded in the system by the facility staff in order to complete the daily reconciliation of prescribed verses administered treatments. Therefore, all patient deaths, including date and cause of death (ICD-9 coded), were recorded in the database by the individual facilities as one type of permanent discharge. In addition, all hospitalizations are recorded as temporary absences, even if no dialysis treatment was missed. Data entered by the individual facilities underwent continuous quality improvement assessment to ensure their accuracy and completeness.
The base line for each individual patient was defined as within a three-month period before starting on paricalcitol or calcitriol. Base line laboratory values were obtained by averaging all values in the three months prior to initiating vitamin D therapy. Quintiles of base line serum calcium and phosphate levels were determined by aggregating values of all patients in the three year time period. Because of known lot-to-lot drifts in parathyroid hormone (PTH) assays, serum levels of PTH were categorized by yearly quintiles, and comparative quintiles across years were combined for the analysis.
Patient “vintage” was determined as the number of days from the initiation of chronic hemodialysis to the first day paricalcitol or calcitriol was administered. This covariate was examined both as a continuous and a categorical variable. […]

cells = conditions: in vitro; compared with paricalcitol; independent of serum calcium, phosphate, PTH; cited from earlier work
uremic rats = conditions: cited from earlier work
patients = conditions: compared with injectable calcitriol (Calcijex); cited from earlier work
[2] = system: patients undergoing chronic renal dialysis; conditions: use of paricalcitol; cited from earlier work

SMILES: C=C1/C(=C\C=C2/CCC[C@]3(C)[C@@H]([C@H](C)CCCC(C)(C)O)CC[C@@H]23)C[C@@H](O)C[C@@H]1O [calcitriol, 1,25 dihydroxycholecalciferol]
- Mortality rate (deaths/person-years) [1]: 30.85%
- Number of deaths [1]: 6805 deaths
- Crude survival at one year [1]: 73.7%
- Crude survival at three years [1]: 44.1%
- Crude survival at two years [1]: 56.0%
- Mortality risk according to quintiles of base line PTH [1]: increased with each successive quintile
- Mortality risk according to quintiles of base line serum calcium [1]: increased with each successive quintile
- Cell sensitization to injury (cells): sensitizes cells to ATP-depletion and iron-mediated injury

SMILES: C[C@H](/C=C/[C@H](C)C(C)(C)O)[C@H]1CC[C@H]2/C(=C/C=C3C[C@@H](O)C[C@H](O)C3)CCC[C@]12C [paricalcitol, 19-Nor=−1, 25-(OH)2D2]
- Mortality rate (deaths/person-years) [1]: 18.54%
- Number of deaths [1]: 3417 deaths
- HR (mortality), restricted population, adjusted ([1]; Caucasian diabetic patients, ages 60-70 years, vintage <100 days, arteriovenous prosthetic graft, 95% CI 0.21-0.82): 0.42
- HR (mortality), restricted population, unadjusted ([1]; Caucasian diabetic patients, ages 60-70 years, vintage <100 days, arteriovenous prosthetic graft, 95% CI 0.33-0.85): 0.53
- HR (mortality) ([1]; Cox model Case Mix, Study Entry Period, SMR, Dialysis Access, Base-Line Laboratory Values, N 25,471): 0.73
- HR (mortality) ([1]; Cox model Case Mix, Study Entry Period, SMR, Dialysis Access, N 50,572): 0.70
- HR (mortality) ([1]; Cox model Case Mix, Study Entry Period, SMR, N 50,572): 0.69
- HR (mortality) ([1]; Cox model Case-Mix and Study Entry Period, N 50,572): 0.70
- HR (mortality) ([1]; Cox model Case-Mix, N 50,572): 0.61
- HR (mortality) ([1]; Cox model Unadjusted, N 50,916): 0.58
- Crude survival at one year [1]: 82.6%
- Crude survival at three years [1]: 59.3%
- Crude survival at two years [1]: 68.6%
- Apparent risk (survival) benefit associated with paricalcitol treatment ([1]; after progressive adjustments, vs calcitriol): ~27%
- Mortality risk within each quintile of serum phosphorus ([1]; compared with the calcitriol group, adjusted model): comparatively lower
- Hazard ratio in the final model (Table 3) ([1]; final model n=25,471, Ref = calcitriol): 0.733
- Risk reduction for each cause of mortality by ICD-9 codes ([1]; infection, neoplasm, cardiovascular, cerebrovascular, other, vs calcitriol, p<0.01): greater than 50%
- Mortality risk according to quintiles of base line PTH [1]: significantly lower risk of mortality at all levels of PTH
- Mortality risk according to quintiles of base line serum calcium [1]: did not appear to have an increased risk of mortality
- Mortality Rate Ratio ([1]; paricalcitol vs calcitriol, 95% CI 0.58-0.63, p<0.01): 0.60
- Survival advantage over calcitriol in stratum ([1]; patients less than 40 years of age at start, event rate 9%): did not demonstrate a significant survival advantage
- Hypercalcemia or hyperphosphatemia (uremic rats): without producing significant hypercalcemia or hyperphosphatemia
- PTH secretion (uremic rats): suppressed PTH secretion
- Incidence of elevated Ca and/or Ca X P levels (patients): statistically significantly greater
- Adverse effects reported [2]: nausea, vomiting, metallic tastes, chills, fever, sepsis, palpitations, dry mouth, gastrointestinal bleeding, edema, light-headedness and pneumonia
